Assays:
[1] = test system: T1, P. falciparum proteasome, β5 (chymotrypsin-like) activity; details: live trophozoites treated 3 h, then lysed; K13 C580Y background; effect may be indirect
T1 construct: gene beta5

[2] = target: T2, P. falciparum proteasome, β2 (trypsin-like) activity (Plasmodium falciparum, UniProt Q8I6T3); experiment: fluorogenic Ac-RLR-AMC cleavage in lysate of drug-treated parasites; format: cell-based; details: read-out: % inhibition at 700 nM
T2 construct: gene PF3D7_1328100; native proteasome in NP-40 lysate of 26-30 hpi trophozoites; not purified; 20S core of four heptameric rings; with Proteasome subunit beta type-5; Proteasome subunit beta type-6 (beta1 catalytic subunit)

[3] = target: T3, P. falciparum proteasome, β1 (caspase-like) activity (Plasmodium falciparum, UniProt Q8I0U7); experiment: fluorogenic Ac-nLPnLD-AMC cleavage in lysate of drug-treated parasites; format: cell-based; details: read-out: % inhibition at 700 nM
T3 construct: gene PF3D7_0931800; native proteasome in NP-40 lysate of 26-30 hpi trophozoites; not purified; 20S core of four heptameric rings; with Proteasome subunit beta type-7 (beta2 catalytic subunit); Proteasome subunit beta type-5

[4] = test system: T4, P. falciparum proteasome, β1 (caspase-like) activity; details: live trophozoites treated 3 h, then lysed; K13 C580Y background; effect may be indirect
T4 construct: gene beta1

[5] = target: T5, P. falciparum proteasome, β5 (chymotrypsin-like) activity (Plasmodium falciparum, UniProt Q8IJT1); experiment: fluorogenic Suc-LLVY-AMC cleavage in lysate of drug-treated parasites; format: cell-based; details: read-out: % inhibition at 700 nM
T5 construct: gene PF3D7_1011400; native proteasome in NP-40 lysate of 26-30 hpi trophozoites; not purified; 20S core of four heptameric rings; with Proteasome subunit beta type-7 (beta2 catalytic subunit); Proteasome subunit beta type-6 (beta1 catalytic subunit)
T5 sequence (Q8IJT1 entry or part of it): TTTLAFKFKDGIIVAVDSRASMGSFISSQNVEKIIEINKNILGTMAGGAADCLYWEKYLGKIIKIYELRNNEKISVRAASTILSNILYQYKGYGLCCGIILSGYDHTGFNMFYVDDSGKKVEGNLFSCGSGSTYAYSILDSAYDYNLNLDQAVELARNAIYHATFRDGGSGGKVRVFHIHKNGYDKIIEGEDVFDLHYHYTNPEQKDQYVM

T2 sequence (Q8I6T3 entry or part of it): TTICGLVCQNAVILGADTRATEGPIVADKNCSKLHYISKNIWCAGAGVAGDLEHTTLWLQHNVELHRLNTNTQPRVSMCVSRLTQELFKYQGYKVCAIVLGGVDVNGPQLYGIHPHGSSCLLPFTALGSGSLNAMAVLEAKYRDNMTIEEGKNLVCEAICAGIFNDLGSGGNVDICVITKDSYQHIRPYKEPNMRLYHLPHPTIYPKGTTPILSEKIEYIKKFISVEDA
T3 sequence (Q8I0U7 entry or part of it): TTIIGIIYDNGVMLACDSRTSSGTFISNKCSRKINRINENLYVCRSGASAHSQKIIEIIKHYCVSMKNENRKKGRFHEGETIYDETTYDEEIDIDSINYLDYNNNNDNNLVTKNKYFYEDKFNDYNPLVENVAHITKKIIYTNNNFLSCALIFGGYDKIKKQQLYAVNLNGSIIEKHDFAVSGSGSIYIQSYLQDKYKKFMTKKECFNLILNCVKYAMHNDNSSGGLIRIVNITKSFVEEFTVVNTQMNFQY

c1cc(C2CCC3(CC2)OOC2(O3)C3CC4CC(C3)CC2C4)ccc1OCCN1CCOCC1 (centres unmarked) [OZ439]
% inhibition at 3 μM [1]: 52%

C[C@@H]1CC[C@H]2[C@@H](C)C(O)O[C@@H]3O[C@@]4(C)CC[C@@H]1[C@]32OO4 (some centres unmarked) [DHA]
inhibition at 0.7 µM [2]: ~40%
inhibition at 0.7 µM [3]: ~40%
% inhibition at 50 nM [4]: 49%
inhibition at 0.7 µM [5]: ~60%
